Data as given in patent US20240174639A1, “PYRIDINE DERIVATIVES USEFUL AS HCN2 MODULATORS” (King's College London, priority 2021, published 2024).
Counter-ions that a name gives are not always drawn.

Legend:
Format in all cases: cell-based
[1] = target: T1, HCN2 (Homo sapiens, UniProt Q9UL51); assay: HCN2 assay using PatchXpress 7000A (Example 50A); details: PatchXpress protocol (PX)
T1 sequence (Q9UL51 1-889): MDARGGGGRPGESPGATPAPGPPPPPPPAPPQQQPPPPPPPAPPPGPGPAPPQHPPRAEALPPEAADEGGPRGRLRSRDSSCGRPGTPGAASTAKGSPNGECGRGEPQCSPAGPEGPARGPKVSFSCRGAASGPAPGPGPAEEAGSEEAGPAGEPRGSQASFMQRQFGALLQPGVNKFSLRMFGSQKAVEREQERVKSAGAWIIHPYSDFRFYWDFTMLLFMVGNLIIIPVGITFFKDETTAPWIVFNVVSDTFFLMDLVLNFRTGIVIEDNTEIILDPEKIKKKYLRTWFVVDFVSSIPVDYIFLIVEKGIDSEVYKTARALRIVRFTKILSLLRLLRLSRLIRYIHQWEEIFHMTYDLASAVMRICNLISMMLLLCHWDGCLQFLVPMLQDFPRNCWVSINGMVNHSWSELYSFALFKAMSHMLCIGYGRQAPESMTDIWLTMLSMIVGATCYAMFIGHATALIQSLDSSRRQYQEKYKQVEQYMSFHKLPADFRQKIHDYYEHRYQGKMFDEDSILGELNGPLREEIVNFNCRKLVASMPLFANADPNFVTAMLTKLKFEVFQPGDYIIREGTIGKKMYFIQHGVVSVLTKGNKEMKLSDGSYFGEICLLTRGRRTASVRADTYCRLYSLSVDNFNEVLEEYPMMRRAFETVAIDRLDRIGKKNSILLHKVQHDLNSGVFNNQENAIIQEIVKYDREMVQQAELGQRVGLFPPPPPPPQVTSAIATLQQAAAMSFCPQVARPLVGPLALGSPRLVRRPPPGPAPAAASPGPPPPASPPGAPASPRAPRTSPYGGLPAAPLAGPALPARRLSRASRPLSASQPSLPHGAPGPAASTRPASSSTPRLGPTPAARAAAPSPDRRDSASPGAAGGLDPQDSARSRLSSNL
Description: (§1) Solutions for recording HON currents were:
For HCN1 and HCN2, the pulse protocol involved stepping from a holding potential of −30 mV to −110 mV (see FIG. 1A) for 2 seconds to evoke the current. The membrane voltage was then stepped back to −30 mV for a further 8 seconds. This sequence was evoked repeatedly every 10 seconds throughout the experiment, starting prior to drug (Control A) and during cumulative additions of 5 increasing compound concentrations, then finally a 100% inhibiting concentration of cesium chloride (CsCl, 3 mM).
(§2) The peak inward current measured at the end of the pulse to −110 mV (HCN1 and HCN2) or −130 mV (HCN4) was measured and any leak current subtracted to calculate the HCN current. The HCN current amplitude was measured after each control or compound addition and normalized to the control amplitude (Control A).
(§3) All experiments were performed at room temperature (approximately 22° C.).
(§4) Each test compound concentration was applied to the cell for seven (7) minutes, at which point the next cumulative concentration was applied. 3 mM CsCl was applied to each cell for 2 minutes at the end of each experiment (Control B) to determine 100% inhibition level of the HCN current.

[2] = target: T2, HCN4 (Homo sapiens, UniProt Q9Y3Q4); assay: HCN4 assay using PatchXpress 7000A (Example 50A); details: PatchXpress protocol (PX)
T2 sequence (Q9Y3Q4 1-1203): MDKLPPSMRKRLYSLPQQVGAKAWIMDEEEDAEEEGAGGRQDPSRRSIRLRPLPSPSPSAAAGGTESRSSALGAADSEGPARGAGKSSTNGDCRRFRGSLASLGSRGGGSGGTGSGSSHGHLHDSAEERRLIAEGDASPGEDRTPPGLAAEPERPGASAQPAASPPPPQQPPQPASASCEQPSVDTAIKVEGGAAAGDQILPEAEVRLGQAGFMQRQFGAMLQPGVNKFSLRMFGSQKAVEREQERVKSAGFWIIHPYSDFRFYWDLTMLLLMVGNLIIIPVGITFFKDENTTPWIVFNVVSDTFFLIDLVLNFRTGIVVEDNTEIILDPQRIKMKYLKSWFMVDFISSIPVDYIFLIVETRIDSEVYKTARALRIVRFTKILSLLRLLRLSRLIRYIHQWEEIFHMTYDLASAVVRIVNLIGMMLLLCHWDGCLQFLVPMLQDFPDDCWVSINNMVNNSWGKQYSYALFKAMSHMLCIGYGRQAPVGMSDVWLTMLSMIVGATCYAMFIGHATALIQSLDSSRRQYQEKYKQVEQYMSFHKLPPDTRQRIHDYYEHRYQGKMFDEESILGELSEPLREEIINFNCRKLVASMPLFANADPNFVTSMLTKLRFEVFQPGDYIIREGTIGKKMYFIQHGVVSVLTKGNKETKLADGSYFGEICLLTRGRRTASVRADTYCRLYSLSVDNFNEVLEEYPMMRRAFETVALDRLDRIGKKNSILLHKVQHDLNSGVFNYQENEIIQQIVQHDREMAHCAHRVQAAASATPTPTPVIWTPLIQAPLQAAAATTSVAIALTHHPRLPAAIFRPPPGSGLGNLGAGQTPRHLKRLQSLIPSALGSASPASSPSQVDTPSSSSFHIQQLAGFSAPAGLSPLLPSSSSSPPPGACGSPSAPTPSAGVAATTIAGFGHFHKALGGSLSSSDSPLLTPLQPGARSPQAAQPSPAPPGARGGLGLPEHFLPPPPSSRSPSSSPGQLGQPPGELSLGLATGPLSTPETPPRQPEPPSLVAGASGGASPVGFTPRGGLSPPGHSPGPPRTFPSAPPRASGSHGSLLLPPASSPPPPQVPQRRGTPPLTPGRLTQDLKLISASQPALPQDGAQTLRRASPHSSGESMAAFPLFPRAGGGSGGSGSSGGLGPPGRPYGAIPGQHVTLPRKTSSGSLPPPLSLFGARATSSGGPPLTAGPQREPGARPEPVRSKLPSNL
Procedure: as §1
For HCN4, the pulse protocol involved stepping from a holding potential of −30 mV to −130 mV (see FIG. 1B) for 4 seconds to evoke the current.
as §2, §3, §4

[3] = target: T1, HCN2; assay: HCN2 assay using the Sophion Qube (Example 50B); details: Sophion Qube protocol (SQ)
Procedure: Solutions for recording HCN currents were:
For HCN1 and HCN2 the cells were held at −30 mV and then stepped to −110 mV for 2 seconds before stepping back to −30 mV, this represents 1 experimental sweep. This voltage protocol was applied every 20 seconds for the duration of the experiment. Both the vehicle (0.3% DMSO) and full block (3 mM CsCl) addition periods were applied for 10 experimental sweeps each. The compound addition period was applied for 30 sweeps.
The currents evoked by the step to −110 mV (HCN1 and HCN2) or −130 mV (HCN4) were measured for the analysis of the percentage inhibition by test compounds. The current amplitudes were measured by subtracting metric A from metric B (see FIG. 2) with inhibition calculated by normalising to the vehicle addition (0.3% DMSO) and full inhibition by 3 mM CsCl in the same well.
In total, compound was applied to the well for 600 seconds.

[4] = target: T2, HCN4; assay: HCN4 assay using the Sophion Qube (Example 50B); details: Sophion Qube protocol (SQ)
Procedure: Solutions for recording HCN currents were: [table] For HCN4, the cells were held at −30 mV and then stepped to −130 mV for 4 seconds before stepping back to −30 mV, this represents 1 experimental sweep. This voltage protocol was applied every 20 seconds for the duration of the experiment. Both the vehicle (0.3% DMSO) and full block (3 mM CsCl) addition periods were applied for 10 experimental sweeps each. The compound addition period was applied for 30 sweeps. The currents evoked by the step to −110 mV (HCN1 and HCN2) or −130 mV (HCN4) were measured for the analysis of the percentage inhibition by test compounds. The current amplitudes were measured by subtracting metric A from metric B (see FIG. 2) with inhibition calculated by normalising to the vehicle addition (0.3% DMSO) and full inhibition by 3 mM CsCl in the same well. […] In total, compound was applied to the well for 600 seconds.

SMILES	IC50 [1] [µM]	IC50 [2] [µM]	IC50 [3] [µM]	IC50 [4] [µM]
CS(=O)(=O)c1ccc(F)c(C[C@H](N)c2ncccc2-n2ncc3ccccc32)n1 [Example 21, (S)-1-[3-(1H-indazole-1-yl)pyridine-2-yl]-2-(3-fluoro-6-methyl-sulfonylpyridine-2-yl)-ethan-1-amine formate]	1.1	≥ 30		
N#Cc1nc(C[C@H](N)c2ncccc2-n2ncc3ccccc32)ccc1F [Example 22, (S)-6-{2-[3-(1H-ind-azol-1-yl)pyridine-2-yl]-2-aminoethyl}-3-fluoropyridine-2-carbonitrile hydro-chloride]	0.32	13.4		
N#Cc1ccc(F)c(C[C@H](N)c2ncccc2-n2ncc3ccccc32)n1 [Example 23, (S)-6-{2-[3-(1H-ind-azol-1-yl)pyridine-2-yl]-2-aminoethyl}-5-fluoropyridine-2-carbonitrile formate]	0.18	7.5		
CCc1ccc(F)c(C[C@H](N)c2ncccc2-n2ncc3ccccc32)n1 [Example 25, (S)-1-[3-(1H-indazole-1-yl)pyridine-2-yl]-2-(3-fluoro-6-ethylpyr-idine-2-yl)ethan-1-amine hydrochloride]	0.34	1.6		
Cc1cc(F)cnc1C[C@H](N)c1ncccc1-n1ncc2ccccc21 [Example 26, (S)-1-[3-(1H-indazole-1-yl)pyridine-2-yl]-2-(5-fluoro-3-methyl-pyridine-2-yl)ethan-1-amine hydrochloride]	0.015	0.5		
N[C@@H](Cc1ncccc1F)c1ncccc1-n1ncc2cc(F)ccc21 [Example 28, (S)-1-[3-(5-Fluoro-1H-indazole-1-yl)pyridine-2-yl]-2-(3-fluoropyr- -idine-2-yl)ethan-1-amine hydrochloride]	1	> 30		
Cc1cccnc1C[C@H](N)c1ncccc1-n1ncc2cc(Br)ccc21 [Example 30, (S)-1-[3-(5-Bromo-1H-indazole-1-yl)pyridine-2-yl]-2-(3-methylpyr-idine-2-yl)ethan-1-amine hydrochloride]			0.9	22.5

The next lines start with the values.

IC50 [1] [µM]	IC50 [2] [µM]	IC50 [3] [µM]	IC50 [4] [µM]	SMILES
		28.6		COc1ccc2c(cnn2-c2cccnc2[C@@H](N)Cc2ncccc2F)c1 [Example 32, (S)-2-(3-fluoropyridine-2-yl)-1-[3-(5-methoxy-1H-indazole-1-yl)-pyridine-2-yl]ethan-1-amine hydrochloride]
		4.9		Cc1ccc(C#N)nc1C[C@H](N)c1ncccc1-n1ncc2cc(C(F)(F)F)ccc21 [Example 33, (S)-6-{2-Amino-2-[3-(5-trifluoromethyl-1H-indazol-1-yl)pyridine-2-yl]ethyl}-5-methyl-pyridine-2-carbonitrile hydrochloride]
		4.5		Cc1ccc(F)c(C[C@H](N)c2ncccc2-n2ncc3cc(F)ccc32)n1 [Example 34, (S)-1-[3-(5-Fluoro-1H-indazole-1-yl)pyridine-2-yl]-2-(3-fluoro-6-methylpyridine-2-yl)-ethan-1-amine hydro-chloride]
		0.46	4.3	Cc1ccc(C#N)nc1C[C@H](N)c1ncccc1-n1ncc2cc(Cl)ccc21 [Example 35, (S)-6-{2-Amino-2-[3-(5-chloro-1H-indazol-1-yl)pyridine-2-yl]-ethyl}-5-methylpyr-idine-2-carbonitrile]
		6.7		COc1ccc2c(cnn2-c2cccnc2[C@@H](N)Cc2nc(C#N)ccc2F)c1 [Example 37]
		11.7		N[C@@H](Cc1ncccc1F)c1ncccc1-n1ncc2cc(C(F)(F)F)ccc21 [Example 40, (S)-1-[3-(5-Trifluoro-methyl-1H-indazole-1-yl)pyridine-2-yl]-2-(3-fluoropyridine-2-yl)-ethan-1-amine hydro-chloride]
		4.9		Cc1ccc(C#N)nc1C[C@H](N)c1cnccc1-n1ncc2cc(Cl)ccc21 [Example 42, (S)-6-{2-Amino-2-[4-(5-chloro-1H-indazol-1-yl)pyridine-3-yl]-ethyl}-5-methylpyr-idine-2-carbonitrile hydrochloride]
		0.78		N#Cc1ccc(F)c(C[C@H](N)c2ncccc2-n2ncc3cc(Br)ccc32)n1 [Example 43, (S)-6-{2-Amino-2-[3-(5-bromo-1H-indazol-1-yl)pyridine-2-yl-ethyl}-5-fluoropyr-idine-2-carbonitrile hydrochloride]
		1.5		Cc1ccc(F)c(C[C@H](N)c2ncccc2-n2ncc3cc(Cl)ccc32)n1 [Example 44, (S)-1-[3-(5-Chloro-1H-indazole-1-yl)pyridine-2-yl]-2-(3-fluoro-6-methylpyridine-2-yl)-ethan-1-amine hydro-chloride]
		1.2		N#Cc1nc(C[C@H](N)c2ncccc2-n2ncc3cc(Br)ccc32)ccc1F [Example 46, (S)-6-{2-Amino-2-[3-(5-bromo-1H-indazol-1-yl)pyridine-2-yl]-ethyl}-3-fluoropyr-idine-2-carbonitrile hydrochloride]
